# Assay results: US20240307500A1, “SUSTAINED RELEASE FORMULATION COMPOSITION COMPRISING SEMAGLUTIDE OR PHARMACEUTICALLY ACCEPTABLE SALT THEREOF” (PEPTRON, INC., priority 2021, published 2024)
# Test system: SD rats
# Assay: Oral glucose tolerance test (OGTT), hypoglycemic effects after single SC injection
# Format: in vivo
# Conditions: single SC 0.123 mpk semaglutide
# Procedure: An oral glucose tolerance test (OGTT) was performed to confirm hypoglycemic effects of the sustained-release microspheres including semaglutide of the present invention. First, the experiment was conducted by dividing 8-week-old SD rats (18 rats; 6 rats in each group) into 3 groups. It was divided into a negative control group (Control), a positive control group (API) and Example 3 formulation administration group (PT403)), wherein the positive control group (API) was subcutaneously injected once with 0.123 mpk of semaglutide, and the Example 3 formulation administration group (PT403) was injected with the Example 3 formulation subcutaneously with 4 mpk.
# After drug administration, total 5 OGTTs (Days 1, 7, 16, 21 and 28) were performed, and 2 g/kg of glucose was orally administered to SD rats fasted for 18 hours. Immediately after glucose administration, and after 15, 30, 60, 90, 120, and 180 minutes, blood was collected from the tail to measure blood glucose.
substance,measurement,value
"N^6,26-{18-[N-(17-carboxyheptadecanoyl)-L-γ-glutamyl]-10-oxo-3, 6, 12, 15-tetraoxa-9, 18-diazaoctadecanoyl}-[8-(2-amino-2-propanoic acid), 34-L-arginine] human glucan-like peptide 1 (7-37) [API]",hypoglycemic effects (in words),returned to normal on the 7th day
